In PMC6844273, “Platinum(IV) dihydroxido diazido N-(heterocyclic)imine complexes are potently photocytotoxic when irradiated with visible light” (Chemical Science, 2019):
Entries after “also recorded” stand apart in the source; their conditions may differ. Where two headings read alike, the source gives them in different places. Marks after values point to notes of the source that are not given here.

Tests used:
[1] = test system: A2780, A2780cis and OE19 cancer cell lines; conditions: for IC50: read-out: IC50 in the absence of irradiation, dark, non-toxic defined as IC50 > 200 μM; for Dark toxicity: absence of irradiation, cell lines investigated
Protocol: (§1) The novel trans-di-(N-heterocyclic)imine dihydroxido diazido Pt^IV complexes Pt^IV complexes were evaluated against human ovarian (A2780), cisplatin-resistant ovarian (A2780cis) and oesophageal (OE19) cancer cell lines, and the previously reported compounds (FM165 and 3) were also evaluated for comparison. […]
(§2) Maintenance. Human ovarian carcinoma (A2780), cisplatin-resistant ovarian carcinoma (A2780CIS) and oesophageal adenocarcinoma (OE19) cells were maintained in RPMI medium containing 10% Foetal Calf Serum (FCS). Cell lines were obtained from the European Collection of Animal Cell Cultures (ECACC). Cells were maintained in antibiotic-free medium in a humidified atmosphere of 95% air: 5% CO2 and subcultured every 7-10 days. Mycoplasma checks were done using the Hoechst staining method. Cells were seeded into dishes the night before experiments at a density of 6 - 7×10^4 cells.cm-2.
(§3) Experiments were carried out in an adapted laboratory with ambient light levels kept below 1 lux […]
(§4) Irradiation. Cells were irradiated by a bank of TL03 light sources (λmax 420 nm), filtered to attenuate wavelengths below 400 nm. Irradiances, dosimetry and calibrations were traceable to the National […]
(§5) Cells were irradiated in stirred suspension. Sham irradiated cells were treated identically to the test cells but were covered during irradiation.
(§6) Treatment. Test compounds were prepared in Earle’s Balanced Salt Solution (EBSS) and filtered immediately before use. Photofrin was used as the positive control for visible light irradiation. The positive and negative controls were included on each plate in parallel with the complexes. Cell viability […]
(§7) Cells were treated for 1 h at 37 °C/5% CO2 with EBSS containing the test compound, and then irradiated with 5 J.cm-2 visible radiation.
(§8) Phototoxic Index and Wavelength-Dependence. The phototoxic Index (PI) was determined 24 h after irradiation using the neutral red uptake assay;14 following cell uptake the neutral red dye accumulates in lysosomes, the low pH in the lysosomal matrix of live cells causes the dye to becomes charged, allowing it to be retained in this organelle.15 The dye was then extracted from the cells upon solubilisation and quantified. Protocol: a stock solution of neutral red was prepared in water (4 mg. mL-1) and diluted 80-fold in the cell culture medium (RPMI). Prior to addition to the cells, the solution was heated to 37 °C and filtered (no. 1 Whatman paper). The growth medium was removed from the cells, the neutral red dye (100 μL) was added and the cells are incubated for 3 hours in the dark. Upon removal of the dye, the cells were rinsed with PBS (100 μL) and then the plates were shaken for 15 min with […] for solubilisation. The dye concentration was quantified by measuring the absorbance at […]. An IC50 value was determined and is defined as the concentration required to inhibit dye uptake by 50%. This was done using non-linear regression (Graphpad Prism). Goodness of fit was determined from the R2 values of the curves and 95% confidence intervals. All cell experiments were performed in triplicate and repeated independently a minimum of two times.

[2] = test system: cisplatin-resistant ovarian (A2780cis) cancer cell line; experiment: Phototoxicity / dark cytotoxicity, neutral red uptake assay, A2780cis; conditions: for PI (phototoxic index): ratio of cytotoxicity following irradiation (420 nm) vs. in the dark; for IC50: read-out: IC50 (phototoxicity), blue light 420 nm, 5 J cm^–2, TL03, filtered <400 nm
Protocol: as §1, §2, §3, §4, §5, §6, §7, §8

[3] = test system: oesophageal (OE19) cancer cell line; experiment: Phototoxicity / dark cytotoxicity, neutral red uptake assay, OE19; conditions: for PI (phototoxic index) / IC50: OE19; for PI (phototoxic index): ratio of cytotoxicity following irradiation (420 nm) vs. in the dark; for IC50: read-out: IC50 (phototoxicity), blue light 420 nm, 5 J cm^–2, TL03, filtered <400 nm
Protocol: as §1
(§9) controller and 3 UVA lamps (Hitachi, λmax = 361 nm) or 6 Luzchem LZC-420 lamps (λmax = 420 nm) with no other sources of light filtration, or LED light sources (BASETech model no. SP-GU10 230V~50 Hz […]
as §2, §3
(§10) Irradiation. Cells were irradiated by a bank of TL03 light sources (λmax 420 nm), filtered to attenuate wavelengths below 400 nm. Irradiances, dosimetry and calibrations were traceable to the National Physical Laboratory.12 Monochromatic light irradiation of the sample was performed using equipment consisting of a 1600W xenon arc light source and a grating monochromator. The apparatus was set to irradiate monochromatic light at 365, 400, 430, 500 and 530 nm. Filters were used to eliminate second order diffraction of shorter wavelengths from the specified longer wavelength monochromatic light.13 Cells were irradiated in stirred suspension. Sham irradiated cells were treated identically to the test cells but were covered during irradiation.
as §6, §7, §8

[4] = test system: human ovarian (A2780) cancer cell line; experiment: Phototoxicity / dark cytotoxicity, neutral red uptake assay, A2780; conditions: for PI (phototoxic index): ratio of cytotoxicity following irradiation (420 nm) vs. in the dark
Protocol: as §1, §9, §2, §3, §10, §6, §7, §8

[5] = type: physicochemical; conditions: water, 20 °C
[6] = test system: human ovarian (A2780) cancer cell line; conditions: cited from earlier work; for Dark toxicity: A2780, absence of irradiation; for IC50: read-out: IC50 (phototoxicity)
[7] = test system: A2780, A2780cis and OE19 cancer cell lines; design: method as in PMID 23733242; conditions: dark; read-out: IC50 in the absence of irradiation; cited from earlier work
[8] = test system: oesophageal (OE19) cancer cell line; design: method as in PMID 23733242; conditions: OE19, 420 nm irradiation; read-out: IC50 (phototoxicity); cited from earlier work
[9] = test system: cisplatin-resistant ovarian (A2780cis) cancer cell line; conditions: read-out: IC50 (phototoxicity), cited from earlier work
[10] = Photodecomposition in H2O (loss of N3→Pt LMCT band) by UV-vis spectroscopy; type: physicochemical; conditions: 60 μM in H2O, blue light 463 nm, 57 mW cm^–2, UV-vis
Protocol: Solutions of the Pt^IV diazido complexes (60 μM, H2O) were irradiated with blue light (463 nm, 57 mW cm^–2). […] The data were fitted to y = y0 + Ae^Rox, with r^2 > 0.98 (Fig. 7).
Figure S2: Changes in UV-Vis spectra of the PtIV diazido complexes (60 μM in H2O) upon irradiation
Table S11. Decomposition half-lives of complexes (60 μM) when irradiated with blue (463 nm) light,
as measured by UV-Vis spectroscopy.
(1 picture or pasted object on this page, not shown here)

[11] = read-out: IC50 (phototoxicity), A2780, blue light 420 nm, 5 J cm^–2, TL03, filtered <400 nm, 1 h treatment, read 24 h after irradiation

Substance	IC50 [1] [µM]	PI (phototoxic index) [2]	IC50 [2] [µM]	PI (phototoxic index) [3]	IC50 [3] [µM]	PI (phototoxic index) ([4]; A2780)	IC50 [4, 11] [µM]	Maximum aqueous solubility [5] [mM]	Decomposition half-life t1/2 [10] [min]	further results
trans,trans,trans-[Pt(N3)2(OH)2(4-picoline)(pyridine)] [Complex 20]	> 200	>45	4.6	>17	12.3	>38	5.4			Phototoxicity with green light ([3]; OE19, green light 515 nm): no phototoxicity; Phototoxicity with green light ([4]; A2780, green light 515 nm): no phototoxicity
trans,trans,trans-[Pt(N3)2(OH)2(1-methylimidazole)2] [Complex 32]	> 200	>1.3	164			>3.7	56.3	82		Dark toxicity [1]: non-toxic in the absence of irradiation
trans,trans,trans-[Pt(N3)2(OH)2(NH3)(py)] [FM165, reference compound]						>9.6	25.4			Dark toxicity [6]: non-toxic in the absence of irradiation; IC50 ([6]; A2780, visible light 420 nm): 25.4 µM
trans,trans,trans-[Pt(N3)2(OH)2(NH2CH3)(thiazole)]										IC50 [7]: > 233 µM; IC50 ([6]; A2780, 420 nm irradiation): 28.2 µM; IC50 [8]: 19.3 µM; IC50 ([9]; 420 nm irradiation): 6.4 µM
trans,trans,trans-[Pt(N3)2(OH)2(thiazole)2] [Complex 29]		>71.0	2.9	>27	7.6		2.4	1	17	Dark toxicity [1]: toxic towards cells in the absence of irradiation; Phototoxicity, fold greater than thiazole complex (tz, methylamine) ([1]; all three cell lines, 420 nm): at least 2 fold; Dark toxicity ([2]; absence of irradiation): no toxicity; also recorded: without any dark toxicity; Dark toxicity ([3]; OE19, absence of irradiation): no toxicity; also recorded: without any dark toxicity; Dark toxicity ([4]; A2780, absence of irradiation): some dark toxicity; IC50 ([4]; read-out: IC50 in the absence of irradiation, A2780, dark): 115 µM
trans,trans,trans-[Pt(N3)2(OH)2(2-picoline)(pyridine)] [Complex 18]		5.3 ^d	15.5			7.3 ^d	14.5			Phototoxicity, fold less phototoxic than 26 ([4]; A2780, 420 nm): ~7 fold
trans,trans,trans-[Pt(N3)2(OH)2(3-picoline)2] [Complex 23]	> 200	>19.3	10.4			>27.8	7.2	3	26	
trans,trans,trans-[Pt(OH)2(N3)2(py)2] [Complex 3, reference compound]				>45	8.4	>45	6.7	34	22	IC50 ([6]; A2780, UVA irradiation): 1.4 µM; Dark toxicity [6]: non-toxic in the absence of irradiation; IC50 ([6]; A2780, visible light 420 nm): 6.7 µM; IC50 ([9]; UVA irradiation): 14.5 µM
trans,trans,trans-[Pt(N3)2(OH)2(4-picoline)2] [Complex 26]	> 200		4.1		8.2		2.1		25	
trans,trans,trans-[Pt(N3)2(OH)2(3-picoline)(pyridine)] [Complex 19]	> 200	>71.0	3.3	>38	5.5	>51.5	4			
